# In publication PMC4407906, “Structure-Guided Engineering of Molinate Hydrolase for the Degradation of Thiocarbamate Pesticides” (PLoS ONE, 2015):
# B1: recombinant molinate hydrolase (enzyme, Gulosibacter molinativorax ON4T)
# chain: GETIAIVGGTLIDGNGGVPVPETTVFIEDGRITKVGSTDQIEVHPNIRQIDAQGKWILPGLVNGNVHLLDGIMMMGRGGIEYLARFEGNYYKVIEEAAQIALRGGVTTVFDTWNALEPVTIARDRIASGAAEGARIFFAGTLIGMGGPFTGDFMRPSMQARTVMSRTFADRMDAMFEVGMGRHLSTLPPAEVRPLIREYLERGVDFCKIAVTDHLVGLLGFRAPYFTFSERVLDVLVDEVRRAGVPLLTHTTSLEGLNTAIERDADLMIHATMTGQAPIPEETIEKLLEKQLWSEVQPTTIAQQAWMDSVDHPFADFSGRVHHENDVRMIKAGVPLVLGTDAGCTDPDILEDMSQGELHERPWTLGEDHFVWMQAMVEKGMDPMAAILAGTANPAKAYRKFDELGSIDVGKLGDVVVLDQDPLADITNMRTLSHVVKEGREIDFHGLPLSPLVTAYPRTANVLD
# notes: molinate hydrolase (MolA) from Gulosibacter molinativorax ON4T; 1984 residues expected for 4 monomers (496 each, tag included); One Zn2+ per monomer (occupancy set to 0.4) in the deposited structure; A SeMet derivative (from E. coli B834 (DE3), metal-depleted) was also solved, with the same overall structure; also called MolA; source: E. coli JM109 or B834 (DE3), vector pASKmolA, purified …
# Experiments:
# [1] = target: T1, molinate hydrolase (Gulosibacter molinativorax, UniProt G2XLB0); test: UV spectrophotometric molinate depletion at […] nm, […] 2-mercaptoethanol; type: biochemical
# T1 construct: gene molA; recombinant protein with a 32 amino acid purification tag
# T1 sequence (G2XLB0 entry or part of it): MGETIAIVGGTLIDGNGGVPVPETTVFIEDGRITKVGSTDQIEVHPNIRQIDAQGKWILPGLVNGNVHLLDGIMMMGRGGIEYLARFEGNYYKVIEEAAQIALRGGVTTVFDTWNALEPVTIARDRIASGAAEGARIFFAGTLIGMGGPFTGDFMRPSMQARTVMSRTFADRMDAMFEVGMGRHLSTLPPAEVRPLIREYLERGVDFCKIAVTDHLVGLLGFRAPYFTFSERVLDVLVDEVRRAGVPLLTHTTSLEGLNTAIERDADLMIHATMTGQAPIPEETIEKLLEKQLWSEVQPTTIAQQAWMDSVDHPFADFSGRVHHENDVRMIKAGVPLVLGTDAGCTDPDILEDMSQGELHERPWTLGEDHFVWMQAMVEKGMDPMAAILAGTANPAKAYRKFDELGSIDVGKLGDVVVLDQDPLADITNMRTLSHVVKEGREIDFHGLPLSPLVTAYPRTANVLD
# [2] = target: T1, molinate hydrolase; test: UV spectrophotometric molinate depletion at […] nm, […] L-cysteine; type: biochemical
# [3] = target: T1, molinate hydrolase; test: HPLC assay of molinate depletion with purified recombinant enzyme; competitive inhibition fit; type: biochemical
# [4] = target: the molecule itself; test: crystal structure; recombinant molinate hydrolase co-crystallised with ZnCl2 (4 or 8 mM), vapour diffusion at 20°C, sodium citrate pH 5.6-6.4, 2-propanol, PEG 4000, glycerol; monoclinic C2 with 8 monomers and orthorhombic with 4 monomers in the asymmetric unit
molecule,measurement,setting,value
OCCS [2-mercaptoethanol],"UV spectrophotometric molinate depletion at 220 nm, 3 mM 2-mercaptoethanol",[1],"other thiolated compounds, such as β-mercaptoethanol, also inhibited molinate hydrolase"
N[C@@H](CS)C(=O)O [L-cysteine],"UV spectrophotometric molinate depletion at 220 nm, 1.5 mM L-cysteine",[2],"cysteine also inhibits the enzyme activity, while serine and methionine do not"
CCS [ethanethiol],Ki,[3],300 µM
B1,stoichiometry N,[4],4
